Test system: macrophage and neutrophil infiltration
Assay: Acute cigarette smoke induced cell infiltration in male Balb/c mice
Assay type: in vivo
Details: acute CS, mouse
Description: Animals were acclimatized for seven days prior to the start of the experiment. Animals were randomly distributed to various groups based on their body weights. On day 1, mice were administered by test compound or vehicle by the oral route and after 30 mins test compound administration animals were placed in a whole body exposure box. The mice were exposed to the mainstream smoke of 6 cigarettes from day 1 to day 4. Exposure to the smoke of each cigarette lasted for 10 min (cigarettes were completely burned in the first two minutes and followed by an air flow with animal ventilator) followed by exposure for the next 20 min with fresh room air. After every second cigarette an additional break of 20 min with exposure to fresh room air was conducted. Control animals were exposed to the room air chamber. From day 1 to day 4 animals were administered test compound by the oral route. On day 5, 24 hours after the last cigarette smoke (CS) exposure. animals were exsanguinated under anaesthesia, and the trachea was cannulated and the lungs were lavaged with 0.5 ml aliquots of heparinised PBS (1 unit/ml) four times through a tracheal cannula (total volume 2 ml). Bronchioalveolar (BAL) collected was stored at 2-8° C. until assayed for total cell and differential leukocyte count. BAL fluid was centrifuged (500×g for 10 min) and the resulting cell pellet was resuspended in 0.5 ml of heparinised saline. The total number of white blood cells was determined in BAL fluid and blood using a blood cell counter and adjusted to 1×10^6 cell/ml. Differential cell count was calculated manually. Forty microliters of the cell suspension was centrifuged using cytospin 3 to prepare a cell smear. The cell smear was stained with a blood staining solution for differentiation and microscopically observed by identifying each cell according to its morphological characteristics. The number of each cell type among 300 white blood cells in the cell smear were determined and expressed as a percentage, and the number of neutrophils and macrophages in each BAL fluid were calculated.
The procedure for acute cigarette smoke induced cell infiltration in male Balb/c mice described in Example 1 was performed with Compound A1 and roflumilast

[1] = 3 mg/kg oral, dose-response study
[2] = combination study, alone at 3.5 mg/kg

## O=C(Nc1c(Cl)cncc1Cl)c1ccc(OC(F)F)c(OCC2CC2)c1 [Compound A, roflumilast, reference compound]
1 mg/kg oral
  percent inhibition of macrophage infiltration: 22.2%
  percent inhibition of neutrophil infiltration: 70.85%
[1]
  percent inhibition of macrophage infiltration: 51.00%
  percent inhibition of neutrophil infiltration: 73.69%
10 mg/kg oral
  percent inhibition of macrophage infiltration: 69.11%
  percent inhibition of neutrophil infiltration: 83.01%
Macrophage, oral, read-out: 50% inhibition (ED50) dose, macrophage infiltration
  ED50: 3.5 mg/kg
[2]
  inhibition of macrophage infiltration: 26.55%
  inhibition of neutrophil infiltration: 44.42%
